Entries after “also recorded” stand apart in the source; their conditions may differ. Values belong to the molecule of their own block, whether it stands above or below them.
Experiments:
SDF1 promoter = SDF1 promoter luciferase reporter assay (pGL3b.SDF1.full) in HMEC-1; assay type: cell-based, human; conditions: 0.1 mM cobalt chloride, 12 hours, HMEC-1 transfected with pGL3b.SDF1.full
Excerpt: The 1.4 kb 5′ SDF1 promoter region was cloned into the luciferase reporter vector pGL3-Basic (Promega) generating pGL.SDF1.full. 5′ deletion constructs were generated from pGL.SDF1.full using unique internal restriction sites SmaI/SacI, and XhoI. HBS-only contructs (HBS1, HBS2, or both) were generated by PCR and cloned into pGL3-Promoter (Promega). HBS1 was mutated using the mega-primer method (primers listed below) (Kammann et al., “Rapid Insertional Mutagenesis of DNA by Polymerase Chain Reaction (PCR),” Nucleic Acids Res. 17:5404 (1989), which is hereby incorporated by reference in its entirety). All constructs were sequenced to confirm their identity. Reporter plasmids were co-transfected with a constitutively expressed Renilla luciferase construct (pHRL-TK, Promega) into HMECs using the Genejammer reagent (Stratagene). 48 hours after transfection, cells were incubated in hypoxia or normoxia with and without 0.1 mM cobalt chloride (CoCl2) for 12 hours. Luciferase activity was determined using the Dual Luciferase System (Promega) and data were normalized to Renilla luciferase expression from at least four independent experiments. Co-transfection experiments using plasmids for oxygen […] HIF-1α (HIF-1.ΔODD) and the HIF-1α dominant negative (HIF-1.DN) were compared to control transfections using the appropriate empty vector (pcDNA3.1 and pCEP4, respectively) for each construct. […]

[1] = molecular target: CXCR4 on human endothelial progenitor cells (EPCs) (human) (UniProt P61073); assay: cell-based or functional assay
[2] = system: CXCR4+ EPCs / HUVEC monolayers; assay: Adhesion assay of DiI-labeled CXCR4+ EPCs to HUVEC monolayers; assay type: cell-based, human; conditions: monolayers pre-coated for 20 minutes with recombinant SDF-1
Method: Confluent HUVEC monolayers were subjected to normoxic or hypoxic culture for 6 hours. Human SDF-1αβ/PBSF (100 ng/ml, Sigma) was added where indicated. DiI-labeled EPCs (5×10^4) in EBM/0.5% FBS were added to each preconditioned monolayer and pre-adhesion fluorescence was measured using a Cytofluor 2320 (Millipore). After 3 hours, nonadherent cells were washed away, and post-adhesion fluorescence was measured. The percentage of adherent
cells was calculated using the following formula: [formula] Results are representative of three independent experiments.
HIF-1α siRNA (Berra et al, “HIF Prolyl-hydroxylase 2 is the Key Oxygen Sensor Setting Low Steady-state Levels of HIF-1α in Normoxia,” Embo. J. 22:4082-4090 (2003), which is hereby incorporated by reference in its entirety) (synthesized by Qiagen) was transfected into HUVECs using RNAiFect (Qiagen) in parallel with Lamin A/C and FITC-labeled control siRNAs according to the manufacturer=3 s protocol. Cells were treated with normoxic or hypoxic conditions starting 24 hours following transfection. Gene expression and adhesion assays were performed at 48 hours.

EPCs = assay: Migration assay (modified transwell) of EPCs; assay type: cell-based, human; conditions: 6 hour migration period
Method: Migration was studied using a modified transwell assay. EPCs (5×10^4) were seeded onto ChemoTx filters (5.7 mm, 8 μm pore, Neuro Probe) in EBM/0.5% FBS. […] Following the 6 hour migration period, nonmigrating cells were completely wiped from the top surface of the membrane. Migrating cells adherent to the undersurface of the filters were quantified using DAPI staining (Vector) with Kodak 1D software. Results are indicative of four independent experiments.

UniProt P61073, sequence (P61073 whole entry): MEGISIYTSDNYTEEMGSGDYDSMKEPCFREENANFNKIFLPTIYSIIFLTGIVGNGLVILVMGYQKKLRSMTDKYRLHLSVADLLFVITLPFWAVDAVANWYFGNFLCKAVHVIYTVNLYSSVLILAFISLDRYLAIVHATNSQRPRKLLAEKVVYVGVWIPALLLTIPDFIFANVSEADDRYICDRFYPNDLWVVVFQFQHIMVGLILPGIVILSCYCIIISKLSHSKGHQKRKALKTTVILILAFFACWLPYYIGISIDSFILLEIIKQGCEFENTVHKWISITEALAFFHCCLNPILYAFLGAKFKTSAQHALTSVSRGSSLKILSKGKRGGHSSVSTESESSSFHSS

Molecule: [Cl][Co][Cl] [cobalt chloride]
SDF1-specific luciferase expression (SDF1 promoter): four-fold

EPC migration toward hypoxia-conditioned media after preincubating EPCs with neutralizing CXCR4 antibodies (HM+ab) [1]: 175 cells/hpf
Molecule: neutralizing CXCR4 antibody (Clone 44716, R&D Systems)

Molecule: recombinant SDF-1: Recombinant human SDF-1αβ/PBSF (Sigma), chemokine
adhesion of CXCR4+ EPCs to normoxic HUVEC monolayers [2]: Increased adhesion; also recorded: adhered more EPCs
EPC migration, effect in words (EPCs): EPC migration increased

From US20060154860A1, “Manipulating stem-progenitor cell trafficking to injured tissue and/or tumors by altering HIF-1 and/or SDF-1 activity” (priority 2004, published 2006)
